{
  "source": "patent US6117859A",
  "about": "“Method of relieving chronic inflammation by using 5-alkylsulfonylsalicylanilides” (The Research Foundation of State University of New York, priority 1999, dated 2000)",
  "key": {"Lipophilicity": {"experiment": "Lipophilicity", "type": "physicochemical", "conditions": "compared with AMCF3-8", "source_text": "By the term \"partition coefficient\" as used herein for the purposes of specification and claims is meant the log10 P where P is the ratio of the molar concentrations of the compositions of the composition in octanol-water system. Partition coefficient is a measure of the lipophilic character of the compound. A partition coefficient of 4 therefore means that the ratio of the concentration of the composition in octanol to the concentration in water is 10^4 or 10,000 to 1."}, "[1]": {"experiment": "Solubility of representative compounds in various solvent systems", "type": "physicochemical", "method": "The solubility of representative compounds of this invention in various solvent systems was determined. The solvents included ethanol, propylene glycol, SLS, Tween 80™ and combinations thereof."}, "myeloperoxidase (MPO)": {"test_system": "myeloperoxidase (MPO)", "experiment": "Myeloperoxidase (MPO) activity in ear biopsies, acute TPA mouse ear assay", "type": "in vivo", "source_text": "The anti-inflammatory effect of selected compounds of this invention were compared to those of Triclosan™ and hydrocortisone in a modified […] (TPA) mouse ear inflammation assay. TPA was used as an inflammogen rather than croton oil because TPA gives a well characterized inflammatory response at very low concentrations. […] This model can therefore be used to study the pharmacokinetics, clinical efficacy and adverse side effects of anti-inflammatory agents. To quantitate inflammation, ear punches from treated animals were used to measure increased ear mass (edema) and myeloperoxidase (MPO) activity. For the inhibition studies, ear biopsies were weighed six hours after treatment with TPA and the simultaneous application of the compound of the present invention. All the compounds were diluted in acetone. Following this, the biopsies were frozen and subsequently used to measure inhibition of MPO activity, an estimate of polymorphonuclear (PMN) […] activity in the affected area. Percent inhibition of edema was calculated as [c-t]/c x 100, where c and t are increases in ear weight in control and treated mice, respectively.\nAs a confirmation of the anti-inflammatory activity and in an attempt to further define the mechanism of inhibition produced by the alkylsulfonylsalicylanilides, MPO activity was measured in representative ear biopsies. The enzyme was extracted from the tissue by using a combination of homogenization in the presence of a detergent, freezing and thawing, and sonication. The change in absorbance was measured with time using o-dianisidine and H2 O2 as the substrate in an automated plate reader. As shown below, TPA-induced increase in MPO was inhibited in TMF-12 treated ears at a dose approximately 10-fold less than that which inhibited edema."}, "[2]": {"experiment": "Single dose oral tolerance in rats", "type": "in vivo, rat (male weaning Sprague-Dawley)", "conditions": "single dose 2.5 or 0.75 g/kg in 5% CMC, 7 days", "method": "To test for tolerance of the administered compounds, male weaning Sprague-Dawley rats were fed in a single dose of 2.5 or 0.75 g/kg of TMF-12, TMF-10, TMC-10 or TPC-10 in 5% carboxymethyl cellulose (CMC) or CMC alone. […] At completion of the 7 day observation period, necropsies were performed on all animals."}, "[3]": {"test_system": "ear weight gain produced by multiple doses of TPA in mice", "experiment": "Chronic (multiple dose) TPA mouse ear inflammation assay, ear weight gain", "type": "in vivo, mouse (female CD-1)"}},
  "data": [
    {"smiles": "CCCCCCCCCCCCS(=O)(=O)c1ccc(O)c(C(=O)Nc2cccc(C(F)(F)F)c2)c1", "note": "[TMF-12]", "values": [
      {"measurement": "Lipophilicity relative to AMCF3-8", "setting": "Lipophilicity", "value": "more lipophilic than AMCF3-8"},
      {"measurement": "solubility", "setting": "[1]; +0.5% tween 80", "value": 1340, "unit": "µg/mL"},
      {"measurement": "solubility", "setting": "[1]; +1% sls", "value": 1660, "unit": "µg/mL"},
      {"measurement": "solubility", "setting": "[1]; +1.5% tween 80", "value": 4290, "unit": "µg/mL"},
      {"measurement": "solubility", "setting": "[1]; +2% SLS + 0.5% Tween 80", "value": 3540, "unit": "µg/mL"},
      {"measurement": "solubility", "setting": "[1]; +2% SLS + 1.0% Tween 80", "value": 4010, "unit": "µg/mL"},
      {"measurement": "solubility", "setting": "[1]; +2% SLS + 2.0% Tween 80", "value": 5860, "unit": "µg/mL"},
      {"measurement": "solubility", "setting": "[1]; +2% sls", "value": 2930, "unit": "µg/mL"},
      {"measurement": "solubility", "setting": "[1]; +3.0% tween 80", "value": 8340, "unit": "µg/mL"},
      {"measurement": "solubility", "setting": "[1]; +4% sls", "value": 5740, "unit": "µg/mL"},
      {"measurement": "solubility", "setting": "[1]; aqueous buffer, pH 10 Na-buffer @ 22° C.", "value": "< 0.1", "unit": "µg/mL"},
      {"measurement": "Solubility in anionic and nonionic surfactant solutions relative to AMCF3-8", "setting": "[1]; compared with AMCF3-8", "value": "greater solubility than AMCF3-8"},
      {"measurement": "solubility", "setting": "[1]; organic solvent or mixture, Ethanol, 22° C.", "value": 13600, "unit": "µg/mL"},
      {"measurement": "solubility", "setting": "[1]; organic solvent or mixture, Propylene Glycol @ 20° C.", "value": 6660, "unit": "µg/mL"},
      {"measurement": "solubility", "setting": "[1]; ph 10 na-buffer +0.5% sls, pH 10 Na-buffer @ 22° C. +0.5% SLS", "value": 1280, "unit": "µg/mL"},
      {"measurement": "MPO Activity", "setting": "myeloperoxidase (MPO); TMF-12 0.8 mg/20 ml", "value": 590.2, "unit": "D OD/min"},
      {"measurement": "MPO Activity", "setting": "myeloperoxidase (MPO); TMF-12 1.24 mg/20 ml", "value": 327.3, "unit": "D OD/min"},
      {"measurement": "MPO Activity", "setting": "myeloperoxidase (MPO); TMF-12 8 mg/20 ml", "value": 56.5, "unit": "D OD/min"},
      {"measurement": "MPO Activity", "setting": "myeloperoxidase (MPO); TMF-12 12.4 mg/20 ml", "value": 54.8, "unit": "D OD/min"},
      {"measurement": "MPO Activity", "setting": "myeloperoxidase (MPO); TMF-12 80 mg/20 ml", "value": 27.6, "unit": "D OD/min"},
      {"measurement": "MPO Activity", "setting": "myeloperoxidase (MPO); TMF-12 124 mg/20 ml", "value": 21, "unit": "D OD/min"},
      {"measurement": "Dose inhibiting MPO increase, fold less than dose inhibiting edema", "setting": "myeloperoxidase (MPO); compared with edema inhibition", "value": "approximately 10 fold"},
      {"measurement": "Illness or deaths", "setting": "[2]", "value": "No illness or deaths occurred"},
      {"measurement": "Inhibition of ear weight gain", "setting": "[3]; 500μg/ear, first experiment", "value": 28, "unit": "%"},
      {"measurement": "Inhibition of ear weight gain", "setting": "[3]; 1.25 mg/ear", "value": 37.5, "unit": "%"},
      {"measurement": "Inhibition of ear weight gain", "setting": "[3]; 2.5 mg/ear", "value": 27.3, "unit": "%"},
      {"measurement": "Inhibition of ear weight gain", "setting": "[3]; 5.0 mg/ear (printed 'mc/ear' for Trifluorosal)", "value": 34.4, "unit": "%"},
      {"measurement": "Activity in chronic assay (in words)", "setting": "[3]; 1.25-5 mg/ear, remaining experiments", "value": "demonstrated consistent activity"},
      {"measurement": "% Inhibition of Ear Weight Gain, Actual", "setting": "[3]; multiple doses of TPA", "value": 37.3, "unit": "%"},
      {"measurement": "% Inhibition of Ear Weight Gain, Relative to Hydrocortisone (HCV) = 100%", "setting": "[3]; multiple doses of TPA, head prints 1.25 eg/ear", "value": 61.8, "unit": "%"}
    ]}
  ]
}
